Assay results from PMC2746281 (PLoS ONE, 2009).

Legend:
[1] = tested on: Δ27-expressing Ba/F3 cells; assay: Ba/F3 Δ27 tumour model in nude mice; assay type: in vivo; conditions: for average tumour volume increase: days 14 to 25, tumours 40 mm^3, vehicle 1200%; for animals with no detectable tumours at day 25: n = 8 per group
Experimental: Nude mice were gamma-irradiated and implanted after 24 hours with Δ27-expressing Ba/F3 cells by subcutaneous injection.
placebo (vehicle control); or untreated (n = 8 per group). […]
Female MBRI Nu/Nu mice (7 weeks old) (Janvier, France) were housed under specific pathogen-free conditions at 20±1°C with a 12 hours light/12 hours dark cycle and ad libitum access to food and filtered water. The mice were allowed to acclimatise to the study conditions for 10 to 20 days prior to experiments. All animal experiments were performed according to Centre national de la recherche scientifique (CNRS) ethical guidelines of animal experimentation. […] The cells were centrifuged and resuspended at 5×10^6 or 7.5×10^6 cells/ml in phosphate-buffered saline. Mice were treated with 5 Gy of gamma radiation and after 24 hours they were injected in the right flank with 1.5×10^6 Δ27 Ba/F3 cells. […] For all animals, body weight was measured on the day of injection and every 5 days thereafter, with the tumour's size measured via callipers every 5 days during the treatment period for estimation of tumour volume. During the predose period and for 2 weeks post-treatment, the animals were checked for mortality or signs of morbidity once a day, increasing to twice a day checks during the treatment period.
Survival in the in vivo mouse studies was assessed by Kaplan-Meier analysis using GraphPad Prism (GraphPad Software, Inc. USA) with comparison of survival curves performed by the logrank Mantel-Cox test. The appropriate Wilcoxon or Kruskall-Wallis tests were used for group comparison of tumour volumes and BMMC migration.

[2] = molecular target: T1, Proline-rich Tyrosine kinase (FAK2/PYK2) (Homo sapiens, UniProt Q14289); assay: Recombinant kinase ELISA assay, PYK2; assay type: biochemical; conditions: recombinant human enzyme; ELISA-based assay, poly(Glu,Tyr 4:1) substrate
T1 construct: PYK2 (2-1006; BC042599); 6xHN (N); made in house; host or cells: baculovirus, Sf9 insect cells
T1 sequence (Q14289 2-1006): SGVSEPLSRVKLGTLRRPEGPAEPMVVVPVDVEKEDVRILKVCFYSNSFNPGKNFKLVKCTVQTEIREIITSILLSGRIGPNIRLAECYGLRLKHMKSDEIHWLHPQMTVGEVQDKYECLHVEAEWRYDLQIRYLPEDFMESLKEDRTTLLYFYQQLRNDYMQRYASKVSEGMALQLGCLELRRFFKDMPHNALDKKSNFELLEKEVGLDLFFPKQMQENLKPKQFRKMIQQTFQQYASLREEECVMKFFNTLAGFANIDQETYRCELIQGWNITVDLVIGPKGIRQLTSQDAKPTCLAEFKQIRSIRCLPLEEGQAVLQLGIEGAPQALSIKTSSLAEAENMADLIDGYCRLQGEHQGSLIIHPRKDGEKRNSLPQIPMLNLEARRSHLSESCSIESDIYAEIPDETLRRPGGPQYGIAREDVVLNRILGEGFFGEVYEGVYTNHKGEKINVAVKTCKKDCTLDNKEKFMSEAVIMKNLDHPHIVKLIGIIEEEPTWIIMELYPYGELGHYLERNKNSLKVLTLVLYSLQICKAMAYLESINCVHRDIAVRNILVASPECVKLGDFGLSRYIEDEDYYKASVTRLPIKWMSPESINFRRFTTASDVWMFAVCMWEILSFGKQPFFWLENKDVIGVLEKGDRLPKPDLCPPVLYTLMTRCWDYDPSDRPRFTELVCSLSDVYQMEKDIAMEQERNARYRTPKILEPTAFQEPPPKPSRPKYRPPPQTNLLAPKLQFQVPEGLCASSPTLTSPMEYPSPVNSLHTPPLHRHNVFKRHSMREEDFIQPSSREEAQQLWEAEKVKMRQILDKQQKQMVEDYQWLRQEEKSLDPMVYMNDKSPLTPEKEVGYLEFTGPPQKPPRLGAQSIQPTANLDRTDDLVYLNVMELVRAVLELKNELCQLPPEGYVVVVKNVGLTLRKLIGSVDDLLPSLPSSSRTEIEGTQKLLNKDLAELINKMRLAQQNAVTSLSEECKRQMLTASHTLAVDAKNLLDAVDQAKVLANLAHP
Experimental: (§1) Full details for the generation of recombinant human KIT intracellular domain and other protein kinases (including Lyn, platelet derived growth factor receptor β, epidermal growth factor receptor, fibroblast growth factor receptor 1, Src, HCK, PYK, FES, Btk, Bmx, c-Ret, c-Fms, Syk, and c-Met) are provided in the Supplemental Methods (see Supporting Information; Methods S1). Experiments on ABL1, Akt1, protein kinase C-α, insulin-like growth factor receptor 1, and Pim1 were carried out by Proqinase (Germany). All other recombinant protein kinases were performed in-house using an enzyme-linked immunoassay; experimental details are provided in the Supplemental Methods (see Supporting Information; Methods S1).
(§2) The sequences encoding PDGF receptor β (residues 554–1106; GenBank accession no. BC032224), Lyn B (2–583; accession no. BC059394), fibroblast growth factor receptor 1 (572–959; accession no. BC018128), Src (2–536; accession no. BC011566), Btk (2–659; accession no. BC109079), Bmx (2–675; accession no. BC016652), c-Ret (713–1114; accession no. BC004257), c-Fms (538–972; BC047531), Syk (2–612; BC011399), Hck (2-526; accession no. BC014435), Fes (2-822; accession no. BC035357), PYK2 (2-1006; accession no. BC042599) and c-Met (949–1398; accession no. lifeseq3489592) were amplified by PCR from IMAGE cDNA clones purchased from Openbiosystems. […]

[3] = tested on: primary BMMCs from mice expressing wild-type KIT; assay: SCF-stimulated proliferation and KIT tyrosine phosphorylation in primary BMMCs; assay type: cell-based; conditions: Mus musculus, BMMC, primary murine BMMCs, read-out: IC50, SCF-stimulated cell proliferation and tyrosine phosphorylation of KIT in BMMCs
Experimental: (B) western blotting analysis of HMC-1α155 tyrosine phosphorylation. […] (D) Western blotting analysis of BMMC tyrosine phosphorylation. Cell proliferation was assessed by WST-1 colorimetric assay. […] MW = molecular weight.

VEGFR1 = VEGFR1 (Homo sapiens, UniProt P17948); assay: Recombinant kinase ELISA assay, VEGFR1; assay type: biochemical; conditions: recombinant human enzyme; ELISA-based assay, poly(Glu,Tyr 4:1) substrate
Sequence of VEGFR1 (P17948 27-1338): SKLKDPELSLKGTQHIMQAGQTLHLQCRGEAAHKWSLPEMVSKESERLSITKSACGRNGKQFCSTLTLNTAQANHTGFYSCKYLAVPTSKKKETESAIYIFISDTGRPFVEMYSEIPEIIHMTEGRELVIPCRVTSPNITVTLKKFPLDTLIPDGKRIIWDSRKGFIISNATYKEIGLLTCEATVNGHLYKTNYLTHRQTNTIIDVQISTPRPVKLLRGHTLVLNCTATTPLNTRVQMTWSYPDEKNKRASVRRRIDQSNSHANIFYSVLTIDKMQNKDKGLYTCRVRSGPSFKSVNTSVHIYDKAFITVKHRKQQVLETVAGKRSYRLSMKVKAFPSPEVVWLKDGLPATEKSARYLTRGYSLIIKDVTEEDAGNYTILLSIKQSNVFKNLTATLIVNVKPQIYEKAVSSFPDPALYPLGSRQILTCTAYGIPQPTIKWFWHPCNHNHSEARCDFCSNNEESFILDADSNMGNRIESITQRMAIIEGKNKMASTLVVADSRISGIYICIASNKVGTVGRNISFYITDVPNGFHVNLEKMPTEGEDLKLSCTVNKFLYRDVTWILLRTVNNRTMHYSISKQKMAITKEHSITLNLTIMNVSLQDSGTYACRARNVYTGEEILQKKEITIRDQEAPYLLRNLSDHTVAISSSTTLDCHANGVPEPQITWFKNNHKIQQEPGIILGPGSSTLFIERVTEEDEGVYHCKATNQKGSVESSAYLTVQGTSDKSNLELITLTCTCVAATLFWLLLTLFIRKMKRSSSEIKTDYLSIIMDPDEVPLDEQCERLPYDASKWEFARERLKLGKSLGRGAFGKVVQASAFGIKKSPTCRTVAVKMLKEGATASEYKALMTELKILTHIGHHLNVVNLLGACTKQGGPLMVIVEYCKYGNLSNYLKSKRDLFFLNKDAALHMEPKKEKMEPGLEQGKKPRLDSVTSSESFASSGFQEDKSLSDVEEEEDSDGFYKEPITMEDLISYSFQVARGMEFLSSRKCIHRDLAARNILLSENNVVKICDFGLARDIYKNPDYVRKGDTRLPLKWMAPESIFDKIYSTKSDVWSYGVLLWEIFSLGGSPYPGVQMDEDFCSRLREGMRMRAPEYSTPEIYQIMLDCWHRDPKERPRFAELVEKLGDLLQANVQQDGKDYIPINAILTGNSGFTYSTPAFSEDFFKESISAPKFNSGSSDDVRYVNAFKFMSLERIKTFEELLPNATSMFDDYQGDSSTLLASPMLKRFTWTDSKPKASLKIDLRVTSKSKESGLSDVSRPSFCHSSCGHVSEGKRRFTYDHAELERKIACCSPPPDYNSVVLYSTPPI
Experimental: as §1
(§3) A 96-well microtitre plate (Immulon 2HB; ThermoLifeScience, Finland) was coated overnight with 0.25 mg/ml poly(Glu,Tyr 4:1), rinsed twice with 250 µl of washing buffer (10 mM phosphate-buffered saline [pH 7.4] and 0.05% Tween 20) and dried for 2 hours at room temperature. […] Reactions were initiated upon introduction of the enzyme and terminated with the addition of one reaction volume (50 μl) of 100 mM EDTA per 5 M urea mix. […] The final reaction product was quantified by spectrophotometry at 450 nm.

Hck = molecular target: T2, Hck (Homo sapiens, UniProt P08631); assay: Recombinant kinase ELISA assay, Hck; assay type: biochemical; conditions: recombinant human enzyme; ELISA-based assay, poly(Glu,Tyr 4:1) substrate
T2 construct: Hck (2-526; BC014435); 6xHN (N); made in house; host or cells: baculovirus, Sf9 insect cells
T2 sequence (P08631 23-526 limits assumed): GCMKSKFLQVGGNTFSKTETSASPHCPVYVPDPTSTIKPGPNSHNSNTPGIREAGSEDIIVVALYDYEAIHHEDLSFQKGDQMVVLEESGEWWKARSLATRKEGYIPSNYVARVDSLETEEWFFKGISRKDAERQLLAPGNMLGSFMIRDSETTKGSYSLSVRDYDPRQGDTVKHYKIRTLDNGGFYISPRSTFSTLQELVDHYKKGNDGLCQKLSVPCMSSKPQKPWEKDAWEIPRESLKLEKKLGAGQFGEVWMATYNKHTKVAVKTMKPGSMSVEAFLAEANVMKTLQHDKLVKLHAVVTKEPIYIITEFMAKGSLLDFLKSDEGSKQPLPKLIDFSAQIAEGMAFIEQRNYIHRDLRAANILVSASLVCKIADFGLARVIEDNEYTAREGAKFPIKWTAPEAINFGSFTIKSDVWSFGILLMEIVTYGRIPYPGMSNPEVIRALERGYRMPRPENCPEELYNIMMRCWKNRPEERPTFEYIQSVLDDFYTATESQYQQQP
Experimental: as §1, §2

c-Ret = molecular target: T3, c-Ret (Homo sapiens, UniProt P07949); assay: Recombinant kinase ELISA assay, c-Ret; assay type: biochemical; conditions: recombinant human enzyme; ELISA-based assay, poly(Glu,Tyr 4:1) substrate
T3 construct: c-Ret (713–1114; BC004257); 6xHN (N); made in house; host or cells: baculovirus, Sf9 insect cells
T3 sequence (P07949 713-1072 isoform P07949-2): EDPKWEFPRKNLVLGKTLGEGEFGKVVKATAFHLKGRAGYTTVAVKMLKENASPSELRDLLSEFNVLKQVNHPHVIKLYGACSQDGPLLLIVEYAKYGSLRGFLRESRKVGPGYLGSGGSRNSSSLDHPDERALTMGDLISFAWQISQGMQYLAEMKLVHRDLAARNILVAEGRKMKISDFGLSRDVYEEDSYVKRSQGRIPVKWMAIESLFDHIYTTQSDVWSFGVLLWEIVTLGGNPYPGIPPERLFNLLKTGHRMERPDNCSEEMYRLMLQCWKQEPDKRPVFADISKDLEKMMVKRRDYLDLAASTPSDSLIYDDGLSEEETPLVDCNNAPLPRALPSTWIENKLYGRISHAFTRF
Experimental: as §1, §2

[4] = molecular target: Fibroblast growth factor receptor 3 (Homo sapiens, UniProt P22607); assay: Recombinant kinase ELISA assay, FGFR3; assay type: biochemical; conditions: recombinant human enzyme; ELISA-based assay, poly(Glu,Tyr 4:1) substrate
Sequence of Fibroblast growth factor receptor 3 (P22607 23-806): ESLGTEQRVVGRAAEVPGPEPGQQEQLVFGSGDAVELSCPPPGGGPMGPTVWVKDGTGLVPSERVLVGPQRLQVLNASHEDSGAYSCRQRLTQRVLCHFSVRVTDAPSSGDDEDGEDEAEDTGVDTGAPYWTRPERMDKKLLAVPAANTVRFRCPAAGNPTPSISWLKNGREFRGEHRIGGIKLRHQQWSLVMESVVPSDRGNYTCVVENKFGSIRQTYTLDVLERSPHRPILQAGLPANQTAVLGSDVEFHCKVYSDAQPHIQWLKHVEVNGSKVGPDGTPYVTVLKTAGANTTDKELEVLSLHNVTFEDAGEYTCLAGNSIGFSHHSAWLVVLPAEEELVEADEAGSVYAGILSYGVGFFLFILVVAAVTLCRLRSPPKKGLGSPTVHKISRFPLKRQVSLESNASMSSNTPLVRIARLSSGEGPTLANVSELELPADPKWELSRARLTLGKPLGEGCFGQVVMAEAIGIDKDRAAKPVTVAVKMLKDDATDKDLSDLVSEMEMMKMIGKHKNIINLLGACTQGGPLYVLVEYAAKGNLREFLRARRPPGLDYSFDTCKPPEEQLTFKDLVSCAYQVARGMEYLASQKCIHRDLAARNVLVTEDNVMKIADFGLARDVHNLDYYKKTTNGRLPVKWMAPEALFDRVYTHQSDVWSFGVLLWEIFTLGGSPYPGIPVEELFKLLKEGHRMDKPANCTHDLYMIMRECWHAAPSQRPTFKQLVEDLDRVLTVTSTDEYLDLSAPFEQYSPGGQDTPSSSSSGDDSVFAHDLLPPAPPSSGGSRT
Experimental: as §1, §3

CS(=O)(=O)O.CS(=O)(=O)O.Cc1ccc(NC(=O)c2ccc(CN3CCN(C)CC3)cc2)cc1Nc1nc(-c2cccnc2)cs1 [masitinib, 4-(4-methylpiperazin-1-ylmethyl)-N-[4-methyl-3-(4-pyridin-3ylthiazol-2-ylamino)phenyl]benzamide-mesylate methane sulfonic acid salt]
effect on total body weight ([1]; 30 mg/kg intraperitoneal twice daily for 25 days): did not affect the total body weight
tumour growth ([1]; 30 mg/kg intraperitoneal twice daily for 25 days, tumours 400 mm^3): Tumour growth stabilised
median survival time ([1]; 30 mg/kg intraperitoneal twice daily for 25 days, tumours 400 mm^3, control 30.5 days): 42 days
average tumour volume, placebo group compared to masitinib treated group ([1]; 30 mg/kg intraperitoneal twice daily, after 10 days of treatment (day 29)): ~4 fold
average tumour volume increase ([1]; 30 mg/kg oral twice daily): 355%
animals with no detectable tumours at day 25 ([1]; 30 mg/kg oral twice daily): one
average tumour volume increase ([1]; 45 mg/kg oral twice daily): 154%
animals with no detectable tumours at day 25 ([1]; 45 mg/kg oral twice daily): two
tumour growth ([1]; 100 mg/kg oral twice daily, 5 days, tumours 500 mm^3 (data not shown)): tumour growth was blocked
effect on body weight gain ([1]; 10, 30, or 45 mg/kg oral twice daily): did not affect body weight gain
IC50 [2]: > 10 µM
IC50 [3]: 0.2 ± 0.05 µM
IC50 (VEGFR1): > 10 µM
IC50 (Hck): 2 ± 0.2 µM
IC50 (c-Ret): > 10 µM
IC50 [4]: > 10 µM
